Source: the supplement of paper PMC10307832

Assays:
Assay in all cases: relative viability (nuclei count vs DMSO), 5 days (fraction); higher = more cells survive
Everolimus = compound: CO[C@H]1C[C@@H]2CC[C@@H](C)[C@@](O)(O2)C(=O)C(=O)N2CCCC[C@H]2C(=O)O[C@H]([C@H](C)C[C@@H]2CC[C@@H](OCCO)[C@H](OC)C2)CC(=O)[C@H](C)/C=C(\C)[C@@H](O)[C@@H](OC)C(=O)[C@H](C)C[C@H](C)/C=C/C=C/C=C/1C [Everolimus]
Method in brief: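 Lung cancer cell lines were seeded into 1536-well plates, kept overnight at 37 °C and pinned with five library-drug doses (not always all listed) spaced by √10. After 5 days, nuclei were Hoechst-stained, imaged at 4× and counted with MetaXpress. Viability is treated-well nuclei over vehicle-well nuclei, taken as a median across plates. Plates needed control CV below 25% and at least one doubling.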

Everolimus + Tozasertib = compound: CO[C@H]1C[C@@H]2CC[C@@H](C)[C@@](O)(O2)C(=O)C(=O)N2CCCC[C@H]2C(=O)O[C@H]([C@H](C)C[C@@H]2CC[C@@H](OCCO)[C@H](OC)C2)CC(=O)[C@H](C)/C=C(\C)[C@@H](O)[C@@H](OC)C(=O)[C@H](C)C[C@H](C)/C=C/C=C/C=C/1C [Everolimus] + Cc1cc(Nc2cc(N3CCN(C)CC3)nc(Sc3ccc(NC(=O)C4CC4)cc3)n2)n[nH]1 [Tozasertib] (partner 0.1 µM)
Method in brief: (§1)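 Five library-drug doses in √10 steps were combined with a fixed anchor-drug dose, or a single drug was given alone, by pin tool to lung cancer cell lines in 1536-well plates the day after seeding. Nuclei were stained and counted after 5 days. Relative viability is the nuclei count in treated wells over that in vehicle wells, taken as the median of duplicate plates.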

Everolimus + Navitoclax = compound: CO[C@H]1C[C@@H]2CC[C@@H](C)[C@@](O)(O2)C(=O)C(=O)N2CCCC[C@H]2C(=O)O[C@H]([C@H](C)C[C@@H]2CC[C@@H](OCCO)[C@H](OC)C2)CC(=O)[C@H](C)/C=C(\C)[C@@H](O)[C@@H](OC)C(=O)[C@H](C)C[C@H](C)/C=C/C=C/C=C/1C [Everolimus] + CC1(C)CCC(c2ccc(Cl)cc2)=C(CN2CCN(c3ccc(C(=O)NS(=O)(=O)c4ccc(N[C@H](CCN5CCOCC5)CSc5ccccc5)c(S(=O)(=O)C(F)(F)F)c4)cc3)CC2)C1 [Navitoclax] (partner 0.5 µM)
Method in brief: as §1

Everolimus + Phenformin = compound: CO[C@H]1C[C@@H]2CC[C@@H](C)[C@@](O)(O2)C(=O)C(=O)N2CCCC[C@H]2C(=O)O[C@H]([C@H](C)C[C@@H]2CC[C@@H](OCCO)[C@H](OC)C2)CC(=O)[C@H](C)/C=C(\C)[C@@H](O)[C@@H](OC)C(=O)[C@H](C)C[C@H](C)/C=C/C=C/C=C/1C [Everolimus] + N=C(N)NC(=N)NCCc1ccccc1 [Phenformin] (partner 250 µM)
Method in brief: as §1

| Cell Line | relative viability (Everolimus; 0.01 µM) | relative viability (Everolimus; 0.03162 µM) | relative viability (Everolimus; 0.1 µM) | relative viability (Everolimus; 0.3162 µM) | relative viability (Everolimus; 1 µM) | relative viability (Everolimus + Tozasertib; first compound 0.01 µM) | relative viability (Everolimus + Tozasertib; first compound 0.03162 µM) | relative viability (Everolimus + Tozasertib; first compound 0.1 µM) | relative viability (Everolimus + Tozasertib; first compound 0.3162 µM) | relative viability (Everolimus + Tozasertib; first compound 1 µM) | relative viability (Everolimus + Navitoclax; first compound 0.01 µM) | relative viability (Everolimus + Navitoclax; first compound 0.03162 µM) | relative viability (Everolimus + Navitoclax; first compound 0.1 µM) | relative viability (Everolimus + Navitoclax; first compound 0.3162 µM) | relative viability (Everolimus + Navitoclax; first compound 1 µM) | relative viability (Everolimus + Phenformin; first compound 0.01 µM) | relative viability (Everolimus + Phenformin; first compound 0.03162 µM) | relative viability (Everolimus + Phenformin; first compound 0.1 µM) | relative viability (Everolimus + Phenformin; first compound 0.3162 µM) | relative viability (Everolimus + Phenformin; first compound 1 µM) |
| --- | --- | --- | --- | --- | --- | --- | --- | --- | --- | --- | --- | --- | --- | --- | --- | --- | --- | --- | --- | --- |
| HOP-62 | 0.901 | 0.856 | 0.767 | 0.777 | 0.794 | 0.441 | 0.362 | 0.363 | 0.41 | 0.264 | 0.997 | 0.875 | 0.862 | 0.786 | 0.948 | 0.583 | 0.579 | 0.495 | 0.513 | 0.535 |
| LC-2-ad | 0.932 | 1.03 | 0.89 | 0.958 | 0.9 | 0.434 | 0.384 | 0.385 | 0.423 | 0.343 | 0.339 | 0.245 | 0.284 | 0.245 | 0.236 | 0.54 | 0.502 | 0.54 | 0.516 | 0.491 |
| LCLC-97TM1 | 0.771 | 0.82 | 0.709 | 0.892 | 0.775 | 0.189 | 0.216 | 0.181 | 0.196 | 0.171 | 0.417 | 0.388 | 0.255 | 0.217 | 0.239 | 0.46 | 0.513 | 0.483 | 0.353 | 0.437 |
| LK-2 | 0.844 | 0.554 | 0.546 | 0.491 | 0.487 | 0.165 |  | 0.179 | 0.17 | 0.17 | 0.851 | 0.557 | 0.408 | 0.508 | 0.461 | 0.299 |  | 0.154 | 0.166 | 0.233 |
| LOU-NH91 | 0.823 | 0.799 | 0.798 | 0.789 | 0.773 | 0.637 | 0.608 | 0.63 | 0.609 | 0.656 | 0.53 | 0.59 | 0.473 | 0.524 | 0.496 | 0.636 | 0.596 | 0.609 | 0.541 | 0.584 |
| LU99A | 0.557 | 0.644 | 0.626 | 0.591 | 0.679 | 0.23 | 0.282 | 0.252 | 0.222 | 0.263 | 0.409 | 0.503 | 0.406 | 0.412 | 0.421 | 0.665 | 0.662 | 0.605 | 0.503 | 0.587 |
| LXF-289 | 1.09 | 1.07 | 1 | 1.03 | 1.05 | 0.217 | 0.217 | 0.162 | 0.205 | 0.193 | 0.99 | 1.04 | 0.958 | 0.96 | 0.957 | 0.526 | 0.541 | 0.507 | 0.574 | 0.512 |
| NCI-H23 | 0.639 | 0.516 | 0.468 | 0.583 | 0.55 | 0.396 | 0.295 | 0.299 | 0.358 | 0.217 | 0.556 | 0.424 | 0.44 | 0.544 | 0.557 | 0.641 | 0.607 | 0.508 | 0.593 | 0.496 |
| NCI-H322M | 0.688 | 0.728 | 0.733 | 0.694 | 0.722 | 0.416 | 0.355 | 0.397 | 0.421 | 0.426 | 1.21 | 1.05 | 0.905 | 0.902 | 0.79 | 0.647 | 0.658 | 0.629 | 0.714 | 0.701 |
| NCI-H441 | 0.898 | 0.961 | 0.907 | 0.984 | 0.952 | 0.521 | 0.643 | 0.636 | 0.555 | 0.54 | 0.658 | 0.577 | 0.79 | 0.73 | 0.482 | 0.798 | 0.605 | 0.585 | 0.772 | 0.666 |
| NCI-H460 | 0.951 | 1.03 | 0.957 | 0.921 | 0.939 | 0.719 | 0.698 | 0.603 | 0.538 | 0.569 | 0.998 | 1.11 | 0.704 | 1.1 | 0.779 | 0.492 | 0.57 | 0.588 | 0.538 | 0.315 |
| NCI-H520 | 0.436 | 0.413 | 0.401 | 0.326 | 0.371 | 0.271 | 0.28 | 0.264 | 0.222 | 0.239 | 0.537 | 0.454 | 0.421 | 0.535 | 0.445 | 0.242 | 0.255 | 0.242 | 0.207 | 0.244 |
| NCI-H596 | 0.699 | 0.628 | 0.54 | 0.697 | 0.588 | 0.528 | 0.548 | 0.485 | 0.455 | 0.478 | 0.427 | 0.361 | 0.394 | 0.374 | 0.369 | 0.494 | 0.505 | 0.396 | 0.513 | 0.554 |
| NCI-H647 | 0.644 | 0.521 | 0.539 | 0.535 | 0.65 | 0.28 | 0.281 | 0.198 | 0.344 | 0.14 | 0.782 | 0.659 | 0.609 | 0.646 | 0.748 | 0.317 | 0.395 | 0.338 | 0.36 | 0.537 |
